Laboratory results reported in US20240208994A1, “PLASMA KALLIKREIN INHIBITORS” (Merck Sharp & Dohme LLC, priority 2021, published 2024).

What was measured:
Human plasma kallikrein = target: T1, Human plasma kallikrein (Homo sapiens, UniProt P03952); assay: Plasma Kallikrein Assay; type: biochemical; details: purified Human plasma kallikrein 0.5 nM, substrate Acetyl-K-P-R-AFC, HEPES pH 7.4, fluorescence 405 Ex/510 Em; read-out: PKal IC50
T1 construct: yields a heavy chain (371 amino acids) and a light chain (248 amino acids); purchased Enzyme Research Laboratories
T1 sequence (P03952 391-638 limits assumed): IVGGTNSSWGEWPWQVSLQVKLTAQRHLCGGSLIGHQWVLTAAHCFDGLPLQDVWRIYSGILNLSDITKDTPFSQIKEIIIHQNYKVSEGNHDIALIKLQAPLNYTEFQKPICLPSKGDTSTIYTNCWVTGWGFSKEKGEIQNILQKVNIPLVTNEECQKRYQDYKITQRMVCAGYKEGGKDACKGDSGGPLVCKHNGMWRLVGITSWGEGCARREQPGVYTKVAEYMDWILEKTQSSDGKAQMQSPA
T1 sequence (P03952 20-390 partner limits assumed): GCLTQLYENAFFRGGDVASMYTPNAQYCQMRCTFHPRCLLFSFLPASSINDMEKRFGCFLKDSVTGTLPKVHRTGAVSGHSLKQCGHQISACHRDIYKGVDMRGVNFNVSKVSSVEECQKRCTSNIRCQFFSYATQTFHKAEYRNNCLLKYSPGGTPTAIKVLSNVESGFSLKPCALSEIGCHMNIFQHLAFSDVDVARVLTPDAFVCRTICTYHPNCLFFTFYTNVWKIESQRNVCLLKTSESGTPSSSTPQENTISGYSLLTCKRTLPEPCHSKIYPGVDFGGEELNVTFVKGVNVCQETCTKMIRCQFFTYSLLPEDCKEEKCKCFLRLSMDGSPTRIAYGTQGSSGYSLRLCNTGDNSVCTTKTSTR
Procedure: (§1) The effectiveness of a compound of the present invention as an inhibitor of plasma kallikrein can be determined using a relevant purified serine protease, and an appropriate synthetic substrate. The rate of hydrolysis of the chromogenic or fluorogenic substrate by the relevant serine protease was measured both in the absence and presence of compounds of the present invention. Assays were conducted at rt or at 37° C. […] A decrease in the rate of fluorescence change in the presence of inhibitor is indicative of enzyme inhibition. Such methods are known to one skilled in the art. The results of this assay are expressed as the half-maximal inhibitory concentrations (IC50), or the inhibitory constant, Ki.
Plasma kallikrein determinations were made in 50 mM HEPES buffer at pH 7.4 containing 150 mM NaCl, 5 mM CaCl2), and 0.1% PEG 8000 (polyethylene glycol: Fisher Scientific). Determinations were made using purified Human plasma kallikrein at a final concentration of 0.5 nM (Enzyme Research Laboratories) and the synthetic substrate, Acetyl-K-P-R-AFC (Sigma #C6608) at a concentration of […].
Activity assays were performed by diluting a stock solution of substrate at least tenfold to a final concentration ≤0.2 Km into a solution containing enzyme or enzyme equilibrated with inhibitor. Times required to achieve equilibration between enzyme and inhibitor were determined in control experiments. The reactions were performed under linear progress curve conditions and fluorescence increase measured at 405 Ex/510 Em nm. Values were converted to percent inhibition of the control reaction (after subtracting 100% Inhibition value). IC50 was determined by inflection point from a four parameter logistic curve fit. Ki was calculated using the Cheng Prusoff equation, Ki=IC50/(1+([S]/Km)).

human factor XIa = human factor XIa (Homo sapiens, UniProt P03951); assay: Factor XIa Assay; type: biochemical; details: human factor XIa 0.04 nM, 30 min pre-incubation at 25° C., substrate GPR-AFC, pH 7.4, 60 min incubation; read-out: FXIa IC50
human factor XIa, sequence (P03951 388-625 limits assumed): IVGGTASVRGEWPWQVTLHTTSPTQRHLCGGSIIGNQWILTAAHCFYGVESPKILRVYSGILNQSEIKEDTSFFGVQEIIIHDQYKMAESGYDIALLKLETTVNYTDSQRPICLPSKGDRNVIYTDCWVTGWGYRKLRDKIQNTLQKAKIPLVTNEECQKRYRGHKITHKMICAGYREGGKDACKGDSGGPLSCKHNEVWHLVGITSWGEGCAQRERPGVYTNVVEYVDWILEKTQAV
human factor XIa, sequence (P03951 19-387 partner limits assumed): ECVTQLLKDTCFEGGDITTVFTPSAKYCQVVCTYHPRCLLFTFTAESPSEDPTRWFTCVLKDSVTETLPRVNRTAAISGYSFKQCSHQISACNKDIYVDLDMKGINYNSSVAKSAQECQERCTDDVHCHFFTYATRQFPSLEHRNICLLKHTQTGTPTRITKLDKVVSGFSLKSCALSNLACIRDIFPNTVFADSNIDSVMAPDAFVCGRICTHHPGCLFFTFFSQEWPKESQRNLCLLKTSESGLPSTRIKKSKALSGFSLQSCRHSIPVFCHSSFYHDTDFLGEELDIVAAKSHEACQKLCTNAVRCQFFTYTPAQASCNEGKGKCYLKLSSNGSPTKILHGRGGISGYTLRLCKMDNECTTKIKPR
Procedure: as §1, with “Coagulation factor XIa” for “plasma kallikrein”
Compounds were pre-incubated for 30 min at 25° C. with human (0.04 nM) factor XIa in 50 mM HEPES buffer with 150 mM sodium chloride, 5 mM calcium chloride, 0.1% PEG 8000, pH 7.4. factor XIa enzymatic activity was determined by addition of the substrate glycine-proline-arginine-7-amido-4-trifluoromethylcoumarin (GPR-AFC) and measurement of the fluorescence at 400/505 nm after a 60 min incubation at 25° C. The % inhibition for each data point was calculated from the data and analyzed using the log (inhibitor) vs. response four parameters equation to determine the half-maximal inhibitory concentrations (IC50). The IC50 were converted to equilibrium inhibitory constants (Ki) using the Cheng-Prusoff equation.

Structure (SMILES)	IC50 (Human plasma kallikrein)	IC50 (human factor XIa)
Nc1c(Cl)c(-c2ncc(F)cc2F)nn1CC(=O)N1CCC[C@@]2(C1)OC(=O)Nc1ccc(Cl)c(F)c12 [Example 33, (R)-1′-(2-(5-Amino-4-chloro-3-(3,5-difluoropyridin-2-y1)-1H-pyrazol-1-yl)acetyl)-6-chloro-5-fluorospiro[benzo[d][1,3]oxazine-4,3′-piperidin]-2(1H)-one]	7.7 nM	187 nM
Nc1c(Cl)c(-c2ncccc2F)nn1CC(=O)N1CCC[C@@]2(C1)OC(=O)Nc1ccc(Cl)c(F)c12 [Example 34, (R)-1′-(2-(5-Amino-4-chloro-3-(3-fluoropyridin-2-y1)-1H-pyrazol-1-yl)acetyl)-6-chloro-5-fluorospiro[benzo[d][1,3]oxazine-4,3′-piperidin]-2(1H)-one]	8.9 nM	177 nM
Nc1c(Cl)c(-c2ncccn2)nn1CC(=O)N1CCC[C@@]2(C1)OC(=O)Nc1ccc(Cl)c(F)c12 [Example 35, (R)-1′-(2-(5-Amino-4-chloro-3-(pyrimidin-2-y1)-1H-pyrazol-1-yl)acetyl)-6-chloro-5-fluorospiro[benzo[d][1,3]oxazine-4,3′-piperidin]-2(1H)-one]	24.5 nM	280 nM
Nc1cc(-c2ncccc2F)nn1CC(=O)N1CCC[C@@]2(C1)OC(=O)Nc1ccc(Cl)c(F)c12 [Example 36, (R)-1′-(2-(5-Amino-3-(3-fluoropyridin-2-y1)-1H-pyrazol-1-yl)acetyl)-6-chloro-5-fluorospiro [benzo[d][1,3]oxazine-4,3′-piperidin]-2(1H)-one]	8.4 nM	826 nM
Nc1cc(-c2c(F)cccc2F)nn1CC(=O)N1CC[C@@]2(C1)OC(=O)Nc1ccc(Cl)c(F)c12 [Example 37, (R)-1′-(2-(5-Amino-3-(2,6-difluorophenyl)-1H-pyrazol-1-yl)acetyl)-6-chloro-5-fluorospiro[benzo[d][1.3]oxazine-4,3′-pyrrolidin]-2(1H)-one]	2.2 nM	102 nM
Nc1cc(-c2ccccn2)nn1CC(=O)N1CC[C@@]2(C1)OC(=O)Nc1ccc(Cl)c(F)c12 [Example 38, (R)-1′-(2-(5-Amino-3-(pyridin-2-y1)-1H-pyrazol-1-yl)acetyl)-6-chloro-5-fluorospiro[benzo[d][1,3]oxazine-4,3′-pyrrolidin]-2(1H)-one]	28 nM	665 nM
Nc1cc(-c2cccs2)nn1CC(=O)N1CC[C@@]2(C1)OC(=O)Nc1ccc(Cl)c(F)c12 [Example 39, (R)-1′-(2-(5-Amino-3-(thiophen-2-y1)-1H-pyrazol-1-yl)acetyl)-6-chloro-5-fluorospiro[benzo[d] [1,3]oxazine-4,3′-pyrrolidin]-2(1H)-one]	13 nM	254 nM
Nc1cc(-c2ccco2)nn1CC(=O)N1CC[C@@]2(C1)OC(=O)Nc1ccc(Cl)c(F)c12 [Example 40, (R)-1′-(2-(5-Amino-3-(furan-2-y1)-1H-pyrazol-1-yl)acetyl)-6-chloro-5-fluorospiro[benzo[d] [1,3]oxazine-4,3′-pyrrolidin]-2(1H)-one]	16.2 nM	225 nM
Nc1cc(-c2nccs2)nn1CC(=O)N1CC[C@@]2(C1)OC(=O)Nc1ccc(Cl)c(F)c12 [Example 41, (R)-1′-(2-(5-Amino-3-(thiazol-2-y1)-1H-pyrazol-1-yl)acetyl)-6-chloro-5-fluorospiro[benzo[d] [1,3]oxazine-4,3′-pyrrolidin]-2(1H)-one]	18.1 nM	286 nM

Results, then the compound that gave them:

IC50 (Human plasma kallikrein)	IC50 (human factor XIa)	Structure (SMILES)
15.1 nM	611 nM	Cc1cccc(-c2cc(N)n(CC(=O)N3CC[C@@]4(C3)OC(=O)Nc3ccc(Cl)c(F)c34)n2)c1 [Example 42, (R)-1′-(2-(5-Amino-3-(m-toly1)-1H-pyrazol-1-yl)acetyl)-6-chloro-5-fluorospiro[benzo[d][1,3]oxazine-4,3′-pyrrolidin]-2(1H)-one]
3.2 nM	187 nM	Nc1cc(-c2ccccc2Cl)nn1CC(=O)N1CC[C@@]2(C1)OC(=O)Nc1ccc(Cl)c(F)c12 [Example 43, (R)-1′-(2-(5-Amino-3-(2-chlorophenyl)-1H-pyrazol-1-yl)acetyl)-6-chloro-5-fluorospiro[benzo[d][1,3]oxazine-4,3′-pyrrolidin]-2(1H)-one]
11.2 nM	389 nM	Nc1cc(-c2cncc(Br)c2)nn1CC(=O)N1CC[C@@]2(C1)OC(=O)Nc1ccc(Cl)c(F)c12 [Example 44, (R)-1′-(2-(5-Amino-3-(5-bromopyridin-3-y1)-1H-pyrazol-1-yl)acetyl)-6-chloro-5-fluorospiro[benzo[d][1,3]oxazine-4,3'-pyrrolidin]-2(1H)-one]
40.3 nM	2760 nM	Cc1ccc(-c2cc(N)n(CC(=O)N3CC[C@@]4(C3)OC(=O)Nc3ccc(Cl)c(F)c34)n2)n1C [Example 45, (R)-1′-(2-(5-Amino-3-(1,5-dimethyl-1H-pyrrol-2-y1)-1H-pyrazol-1-yl)acetyl)-6-chloro-5-fluorospiro[benzo[d][1,3]oxazine-4,3′-pyrrolidin]-2(1H)-one]
5 nM	263 nM	Nc1cc(-c2ccc(F)cc2F)nn1CC(=O)N1CC[C@@]2(C1)OC(=O)Nc1ccc(Cl)c(F)c12 [Example 46, (R)-1′-(2-(5-Amino-3-(2,4-difluorophenyl)-1H-pyrazol-1-yl)acetyl)-6-chloro-5-fluorospiro[benzo[d][1,3]oxazine-4,3′-pyrrolidin]-2(1H)-one]
14.3 nM	739 nM	Nc1cc(-c2ccc(F)c(F)c2)nn1CC(=O)N1CC[C@@]2(C1)OC(=O)Nc1ccc(Cl)c(F)c12 [Example 47, (R)-1′-(2-(5-Amino-3-(3,4-difluorophenyl)-1H-pyrazol-1-yl)acetyl)-6-chloro-5-fluorospiro[benzo[d][1,3]oxazine-4,3′-pyrrolidin]-2(1H)-one]
7.8 nM	1400 nM	Nc1cc(-c2cc3ccccc3o2)nn1CC(=O)N1CC[C@@]2(C1)OC(=O)Nc1ccc(Cl)c(F)c12 [Example 48, (R)-1′-(2-(5-Amino-3-(benzofuran-2-y1)-1H-pyrazol-1-yl)acetyl)-6-chloro-5-fluorospiro[benzo[d][1,3]oxazine-4,3′-pyrrolidin]-2(1H)-one]
1.4 nM	184 nM	Cn1ncc(-c2cc(N)n(CC(=O)N3CC[C@@]4(C3)OC(=O)Nc3ccc(Cl)c(F)c34)n2)c1C(F)(F)F [Example 49, (R)-1′-(2-(5-Amino-1′-methyl-5′-(trifluoromethyl)-1H,1′H-[3,4′-bipyrazol]-1-yl)acetyl)-6-chloro-5-fluorospiro[benzo[d][1,3]oxazine-4,3′-pyrrolidin]-2(1H)-one]
5.4 nM	422 nM	Nc1cc(-c2ccccc2C(F)(F)F)nn1CC(=O)N1CC[C@@]2(C1)OC(=O)Nc1ccc(Cl)c(F)c12 [Example 50, (R)-1′-(2-(5-Amino-3-(2-(trifluoromethyl)phenyl)-1H-pyrazol-1-yl)acetyl)-6-chloro-5-fluorospiro[benzo[d][1,3]oxazine-4,3′-pyrrolidin]-2(1H)-one]
23.5 nM	1770 nM	COc1cccc(OC)c1-c1cc(N)n(CC(=O)N2CC[C@@]3(C2)OC(=O)Nc2ccc(Cl)c(F)c23)n1 [Example 51, (R)-1′-(2-(5-Amino-3-(2,6-dimethoxyphenyl)-1H-pyrazol-1-yl)acetyl)-6-chloro-5-fluorospiro[benzo[d][1,3]oxazine-4,3′-pyrrolidin]-2(1H)-one]
20.7 nM	426 nM	Nc1cc(C2CCCCC2)nn1CC(=O)N1CC[C@@]2(C1)OC(=O)Nc1ccc(Cl)c(F)c12 [Example 52, (R)-1′-(2-(5-Amino-3-cyclohexy1-1H-pyrazol-1-yl)acetyl)-6-chloro-5-fluorospiro[benzo[d][1,3]oxazine-4,3′-pyrrolidin]-2(1H)-one]
